The values below come from patent publication US20230371508A1, “COMPOSITIONS AND METHODS FOR KILLING INSECT AND NON-INSECT PESTS” (The United States of America, as represented by the …, priority 2018, published 2023).

The test system of one series is L. dispar larvae. As to the kind of experiment: Larvicidal toxicity, treated filter paper in Petri dish. Type of series: in vivo. On the procedure:
Toxicities of MB and some compounds of formula 1 on L. dispar larvae: The bioassays were carried out in plastic Petri dish loaded with filter paper, following a published procedure (Nielsen 2008). 600 μL acetone solution of one derivative with different concentrations was loaded onto the filter paper (90 mm diameter) evenly, and the filter paper was dried for 2 min and then put into the bottom of Petri dish. 10 L. dispar larvae were put onto the Petri dish and covered with a lid. 30 larvae were used for each amount. The mortality was assessed after 24 hr.

A further series concerns D. suzukii. Kind of series: Insecticidal activity on larvae and pupae development and adult emergence in pre-infested blueberries (dip). Type of series: in vivo, Drosophila suzukii. The note with it: for Adults / Larvae / Pupae: pre-infested berries soaked 2 min in 1% solution, assessed after 10 days at room temperature, mean of three replicates (standard error). On the procedure: Impacts of MB and other compounds on D. suzukii control: To investigate the acute toxicity of some compounds of formula 1 against D. suzukii, a published procedure was followed (Cuthbertson, A. G. S., et al., Insects, 5: 488-498 (2014)). First, mixed-sex adults D. suzukii (100) were introduced into a plastic cage (30×30×30 cm) and reared on blueberries (100) for 4 days. After that, the infested blueberries were taken out from the cage. Half of the blueberries (50) were dipped in 100 mL aqueous emulsion of each compound listed in Table 1 at 1% concentration for 2 min as treatment, while the other half of the blueberries (50) were dipped in DI water for 2 min as blank control. Then the corresponding blueberries were separately taken out, placed in two different Petri dishes, and allowed to air dry for 2 h. Second, treatment and blank control blueberries were respectively stored in two plastic cups (32 oz) with closed caps and incubated at room temperature for 10 days. The emergence of adults was then subsequently assessed. The developments of larvae and pupae were further inspected by dissection of the treatment and blank control berries. Each treatment and blank control was repeated three times.

The test system of the next series is H. halys nymphs. Kind of series: Nymphicidal toxicity, treated filter paper in glass vial. Type of series: in vivo. On the procedure:
Toxicities of MB, some compounds of formula 1, and commercial pesticides on H. halys nymphs: The bioassays were carried out in glass vials (20 mL), following a published procedure (Nielsen, A. L., et al., J. Econ. Entomol., 101: 1439-1442 (2008)). Filter paper was cut into round shape pieces (2.4 cm diameter). 50 μL acetone solution of one derivative or commercial pesticide with different concentrations was loaded onto the filter paper evenly, and the filter paper was dried for 1 min and then put into the bottom of vial. A small piece of green bean was put on the filter paper in the vial as food source. Different stages of H. halys nymphs were introduced into the vial and capped with a cotton ball. For each stage, 30 nymphs were used for each amount. For the nymphs of the first instar, 10 nymphs were put into 1 vial. For the nymphs of the second and third instar, 5 nymphs were put into 1 vial. For the nymphs of the fourth instar, 3 nymphs were put into 1 vial. For the nymphs of the fifth instar, 2 nymphs were put into 1 vial. The mortality was assessed after 24 hr.

Series [1] has as its system S. invicta workers. On the procedure:
Fire ant bioassays were conducted in USDA, ARS Stoneville laboratory at 25° C., 80% R.H. with a 12:12 (L:D) photoperiod. Contact toxicities of MB and some compounds of formula 1 against fire ants: Topical application was used for contact toxicity bioassay. Only large workers were used for a purpose of relatively uniform body weight and ease of handling. For all compounds, acetone was used as a solvent. The solution was applied using a 0.779 μl capillary tube. Two experiments were conducted for assessing contact toxicity. […] In order to investigate the structure-activity relationship, LD50 values were also established for MB and EB. […] For each LD50 value, 5 doses of benzoates were used. Each dose was replicated 3 times. Each replicate consisted of 13 to 18 ants. Treated ants were placed in a 30-ml capped cup and dead ants were counted after 24 h.

The conditions of series [2]: Sigma-Aldrich SDS; cited from earlier work.
The next series has as its system H. halys eggs. As to the kind of experiment: Ovicidal toxicity, direct spray on eggs. Type of series: in vivo. The following applies: eggs sprayed, 10 days. The text has this:
Ovicidal toxicities of MB and some compounds of formula 1: The aqueous solutions of one of the compounds of formula 1 with designated concentrations with different concentrations of active ingredient (AI) were separately stored in glass spray bottles according to a published procedure (Cuthbertson 2014). The eggs (10 for H. halys and 100 for P. xylostella) were laid on filter papers in Petri dishes. Different aqueous insecticidal solutions were sprayed on the surfaces of different eggs three times (˜0.5 mL) to completely cover the treatment areas. Then the Petri dishes were covered with lids and maintained in a fume hood for 10 days. The Petri dishes were then inspected for presence of nymph/larvae development or numbers of unhatched eggs.

In series [3] the test system is S. invicta workers. Kind of series: Fumigant toxicity in sealed glass flask. Type of series: in vivo, Solenopsis invicta. The note with it: Solenopsis invicta, 24 h. On the procedure: A 250-ml glass flask (the whole volume is 280 ml) was used to house worker ants in fumigant toxicity bioassays. Two micro-liter of acetone solution of the tested compound was applied onto a paraffin film, which was used to seal the flask with ants. The treated spot of the paraffin film faced the inside of the flask. The upper part of the flask was coated with Fluon® to prevent ants from contacting the test material. Two experiments were conducted. […] LC50 value was established using 5 dosages. Each dosage was replicated 3 times for each of 3 colonies. Each replicate consisted of 15 to 26 ants. Ants that could not stand by themselves were considered dead. Dead ants were counted after 24 h.

Converted amounts (≈) assume the structure as drawn. “Also recorded” adds a separate entry of the source. Where two headings read alike, the source gives them in different places.

For `CCCCCCOC(=O)c1ccccc1` [nHB, n-hexyl benzoate], the “larvicidal toxicity against L. dispar (in words)” value in the series on L. dispar larvae (in vivo) is on record as “did not show any toxicities”. In addition, in the series on D. suzukii (1% concentration on 4 days pre-infested blueberries, 10 days incubation), the “insecticidal toxicity against D. suzukii (in words)” value is reported as “did not show any insecticidal activities”. For the same molecule, the Adults in the series with D. suzukii is on record as 33.7(7.4). Also, the Larvae in the series with D. suzukii is reported as 7.0(1.0). Also, the Pupae in the series on D. suzukii is listed as 40.3(7.0). In addition, the “toxicity against H. halys nymphs (in words)” value with H. halys nymphs (in vivo) was “did not show toxicities”. The LD50 turned out to be 37.1 μg/ant with S. invicta workers [1] (colony 1, 24 h); 42.23 μg/ant in the series on S. invicta workers [1] (colony 2, 24 h); 28.64 μg/ant with S. invicta workers [1] (colony 3, 24 h). In the series with S. invicta workers [1] (in vivo), the “contact toxicity against S. invicta (in words)” value is “comparable results; also recorded: potent contact toxicities”. Besides, the “hazard according to Safety Data Sheet (SDS) from the producer” value in series [2] was “neither known OSHA hazards nor aquatic toxicity”.

Consider `COC(=O)c1cccc(OC)c1` [M3MOB, methyl 3-methoxybenzoate], for which the “LC50 (95% CL)” value with L. dispar larvae (1st stage larvae, 24 hr) is 0.234 (0.216-0.258) mg/cm^2; with H. halys eggs, 0.016 (0.008-0.026) mg/cm^2; in the series on H. halys nymphs (3rd stage nymphs, 24 hr), 1.509 (1.322-1.792) μL/vial. In the series on L. dispar larvae (from LC50 values), the “decreased toxicities compared with MB” value worked out at 50%. Besides, in the series on D. suzukii, the Adults came to 0. The Larvae with D. suzukii worked out at 0. The Pupae in the series with D. suzukii was 0. In addition, the LD50 in the series with S. invicta workers [1] (colony 1, 24 h) is listed as 112.72 μg/ant; with S. invicta workers [1] (colony 2, 24 h) it was 81.78 μg/ant; in the series with S. invicta workers [1] (colony 3, 24 h) it was 47.52 μg/ant. Also, the “increase of mean mortality compared with MB” value in the series with S. invicta workers [1] (dose 77.9 μg/ant, 24 h) was 6 times. The same molecule had a mean mortality in the series on S. invicta workers [1] (dose 77.9 μg/ant, 24 h) of 47.23%. Also, the 50% lethal concentration (LC50) (in general, the concentration lethal to half of the exposed cells or organisms) in the series on S. invicta workers [3] (colony 1, 24 h) is 0.64 µg/mL (≈ 3.85 µM); with S. invicta workers [3] (colony 2, 24 h) it was 0.54 µg/mL (≈ 3.25 µM); in the series with S. invicta workers [3] (colony 3, 24 h), 0.65 µg/mL (≈ 3.91 µM); in the series on S. invicta workers [3] (read-out: mean LC50 value, mean over colonies, 24 h) it was 0.61 µg/mL (≈ 3.67 µM). Further, the mortality at 1.43 µg/mL in the series with S. invicta workers [3] (read-out: mean mortality, dosage 1.43 μg/ml, 24 h) is ~100%. Besides, in series [2], the “hazard according to Safety Data Sheet (SDS) from the producer” value was “not even considered as a hazardous substance”.
